The term inhibition denotes the percentage by which the read-out fell short of the control. One may read the Ki as a measure of affinity in units of concentration, obtained from inhibition or displacement.

T1 sequence (Q8NER1 whole entry): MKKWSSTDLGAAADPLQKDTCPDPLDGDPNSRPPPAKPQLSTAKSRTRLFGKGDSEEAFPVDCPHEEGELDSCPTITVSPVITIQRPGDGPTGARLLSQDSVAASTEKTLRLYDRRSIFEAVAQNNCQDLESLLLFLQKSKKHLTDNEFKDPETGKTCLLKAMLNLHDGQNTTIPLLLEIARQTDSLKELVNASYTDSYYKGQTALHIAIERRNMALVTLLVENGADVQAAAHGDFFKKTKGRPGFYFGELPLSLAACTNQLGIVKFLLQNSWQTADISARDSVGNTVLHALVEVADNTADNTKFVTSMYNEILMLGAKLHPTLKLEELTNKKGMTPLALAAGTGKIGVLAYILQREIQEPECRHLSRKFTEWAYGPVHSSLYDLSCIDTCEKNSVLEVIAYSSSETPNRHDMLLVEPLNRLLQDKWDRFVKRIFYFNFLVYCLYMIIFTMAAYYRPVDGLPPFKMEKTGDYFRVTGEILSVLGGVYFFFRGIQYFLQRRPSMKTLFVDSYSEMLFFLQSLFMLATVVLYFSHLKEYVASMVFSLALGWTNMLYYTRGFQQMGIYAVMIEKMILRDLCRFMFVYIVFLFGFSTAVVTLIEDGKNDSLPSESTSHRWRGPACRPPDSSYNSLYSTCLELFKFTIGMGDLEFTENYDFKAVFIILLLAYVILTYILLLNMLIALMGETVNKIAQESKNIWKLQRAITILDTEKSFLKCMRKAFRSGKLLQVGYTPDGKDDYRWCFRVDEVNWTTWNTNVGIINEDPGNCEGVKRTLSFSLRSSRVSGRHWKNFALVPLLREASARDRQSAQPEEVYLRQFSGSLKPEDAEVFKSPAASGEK

One assay concerns the target T1, vanilloid receptor 1 (VR1/TRPV1 receptor) (Homo sapiens, UniProt Q8NER1).
T1 construct: expressed in transfected cells; host or cells: CHO K1
Description: Functional testing on the vanilloid receptor 1 (FLIPR Ca2+ influx assay, capsaicin stimulation). The class given is cell-based. The following applies: @1 μM compound; Cap = capsaicin; human being; read-out: inhibition (as a percentage), (f) (human being) Cap. Here is the method:
Furthermore, preference may be given to compounds according to the invention that cause a 50 percent displacement of capsaicin, which is present at a concentration of 100 nM, in a FLIPR assay with CHO K1 cells which were transfected with the human VR1 gene at a concentration of less than 2,000 nM, preferably less than 1,000 nM, particularly preferably less than 300 nM, most particularly preferably less than 100 nM, even more preferably less than 75 nM, additionally preferably less than 50 nM, most preferably less than 10 nM.
In the process, the Ca^2+ influx is quantified in the FLIPR assay with the aid of a Ca^2+-sensitive dye (type Fluo-4, Molecular Probes Europe BV, Leiden, the Netherlands) in a fluorescent imaging plate reader (FLIPR, Molecular Devices, Sunnyvale, USA), as described hereinafter.
I. Functional Testing Carried Out on the Vanilloid Receptor 1 (VR1/TRPV1 Receptor) […]
The number of cells in the suspension is set to 3×10^5 per mL and 150 μL of this suspension are in each case introduced into a recess in the cell culture plates coated as described hereinbefore. In the incubator the plates are left for two to three days at 37° C., 5% by volume of CO2 and 95% relative humidity. Subsequently, the cells are loaded with 2 μM of Fluo-4 and 0.01% by volume of Pluronic F127 (Molecular Probes Europe BV, Leiden, the Netherlands) in HBSS buffer (Hank's buffered saline solution, Gibco Invitrogen GmbH, Karlsruhe, Germany) for 30 min at 37° C., washed 3 times with HBSS buffer and after further incubation for 15 minutes at room temperature used for Ca^2+ measurement in a FLIPR assay. The Ca^2+ dependent fluorescence is in this case measured before and after the addition of substances (λex=488 nm, λem=540 nm). Quantification is carried out by measuring the highest fluorescence intensity (FC, fluorescence counts) over time.
The FLIPR protocol consists of 2 substance additions. First the compounds to be tested (10 μM) are pipetted onto the cells and the Ca^2+ influx is compared with the control (capsaicin 10 μM). This provides the result in % activation based on the Ca^2+ signal after the addition of 10 μM of capsaicin (CP). After 5 minutes' incubation, 100 nM of capsaicin are applied and the Ca^2+ influx is also determined.
Desensitising agonists and antagonists lead to suppression of the Ca^2+ influx. The % inhibition is calculated compared to the maximum achievable inhibition with 10 μM of capsazepine.
Triple analyses (n=3) are carried out and repeated in at least 3 independent experiments (N=4).
Starting from the percentage displacement caused by different concentrations of the compounds to be tested of general formula I, IC50 inhibitory concentrations which cause a 50-percent displacement of capsaicin were calculated. Ki values for the test substances were obtained by conversion by means of the Cheng-Prusoff equation (Cheng, Prusoff; Biochem. Pharmacol. 22, 3099-3108, 1973).
The affinity of the compounds according to the invention for the vanilloid receptor 1 (VR1/TRPV1 receptor) was determined as described hereinbefore (pharmacological method I).
Regarding `COc1cc(C(C)C(=O)NCc2ccc(C(F)(F)F)nc2OC(C)C)ccc1CNS(C)(=O)=O` (centres unmarked) [Example 27, N-((2-isopropoxy-6-(trifluoromethyl)pyridin-3-yl)methyl)-2-(3-methoxy-4-(methylsulfonamidomethyl)phenyl)propanamide], the inhibition at 1 µM was determined as 15%.

Still in this assay, the particulars now being: @5 μM compound; Cap = capsaicin; human being; read-out: inhibition (as a percentage), (f) (human being) Cap.
As for `COCCOCc1nc(C(F)(F)F)ccc1CNC(=O)C(C)c1ccc(CNS(C)(=O)=O)c(F)c1` (centres unmarked) [Example 3, 2-(3-fluoro-4-(methylsulfonamidomethyl)phenyl)-N-((2-((2-methoxyethoxy)methyl)-6-(trifluoromethyl)pyridin-3-yl)methyl)propanamide], the inhibition at 5 µM is 13%. Same read-out and setting: the value for `COCCCc1nc(C(F)(F)F)ccc1CNC(=O)C(C)c1ccc(CNS(C)(=O)=O)c(F)c1` (centres unmarked) [Example 2, 2-(3-fluoro-4-(methylsulfonamidomethyl)phenyl)-N-((2-(3-methoxypropyl)-6-(trifluoromethyl)pyridin-3-yl)methyl)propanamide] was 18%.

Still in this assay, the particulars now being: Cap = capsaicin; human being; Ki from IC50 by the Cheng-Prusoff equation; read-out: (f) Ki (human being) [nM] Cap.
For the compound `CC(C(=O)NCc1ccc(C(F)(F)F)nc1OC1CCCC1)c1ccc(CNS(C)(=O)=O)c(F)c1` (centres unmarked) [Example 20, N-((2-(cyclopentyloxy)-6-(trifluoromethyl)pyridin-3-yl)methyl)-2-(3-fluoro-4-(methylsulfonamidomethyl)phenyl)propanamide], the Ki was determined as 13 nM. Consider `CC(C)Oc1nc(C(F)(F)F)ccc1CNC(=O)C(C)c1ccc(CNS(C)(=O)=O)c(F)c1` (centres unmarked) [Example 15, 2-(3-fluoro-4-(methylsulfonamidomethyl)phenyl)-N-((2-isopropoxy-6-(trifluoromethyl)pyridin-3-yl)methyl)propanamide], for which the Ki worked out at 37 nM.

With `CC(C(=O)NCc1ccc(C(F)(F)F)nc1OC1CCOCC1)c1ccc(CNS(C)(=O)=O)c(F)c1` (centres unmarked) [Example 25, 2-(3-fluoro-4-(methylsulfonamidomethyl)phenyl)-N-((2-(tetrahydro-2H-pyran-4-yloxy)-6-(trifluoromethyl)pyridin-3-yl)methyl)propanamide], the Ki came out at 111 nM. In the case of `CC(C(=O)NCc1ccc(C(F)(F)F)nc1-c1ccoc1)c1ccc(CNS(C)(=O)=O)c(F)c1` (centres unmarked) [Example 46, 2-(3-fluoro-4-(methylsulfonamidomethyl)phenyl)-N-((2-(furan-3-yl)-6-(trifluoromethyl)pyridin-3-yl)methyl)propanamide], the Ki was 46 nM. On the same count and under the same terms, in the case of `CC(C(=O)NCc1ccc(C(F)(F)F)nc1C1CCCCC1)c1ccc(CNS(C)(=O)=O)c(F)c1` (centres unmarked) [Example 6, N-((2-cyclohexyl-6-(trifluoromethyl)pyridin-3-yl)methyl)-2-(3-fluoro-4-(methylsulfonamidomethyl)phenyl)propanamide] it was 15 nM; in that of `NS(=O)(=O)NCc1ccc(NC(=O)NCc2ccc(C(F)(F)F)nc2OC2CCCC2)cc1F` [Example 38, 1-{3-fluoro-4-[(sulfamoylamino)methyl]phenyl}-3-{[2-cyclopentyloxy-6-(trifluoromethyl)pyridin-3-yl]methyl}urea], 5 nM. Turning to `CCCCCc1nc(C(F)(F)F)ccc1CNC(=O)C(C)c1ccc(CNS(C)(=O)=O)c(F)c1` (centres unmarked) [Example 1, 2-(3-fluoro-4-(methylsulfonamidomethyl)phenyl)-N-((2-pentyl-6-(trifluoromethyl)pyridin-3-yl)methyl)propanamide], the Ki came out at 14 nM.

Consider `CC(C(=O)NCc1ccc(C(F)(F)F)nc1-c1ccc2cc[nH]c2c1)c1ccc(CNS(C)(=O)=O)c(F)c1` (centres unmarked) [Example 44, N-((2-(1H-indol-6-yl)-6-(trifluoromethyl)pyridin-3-yl)methyl)-2-(3-fluoro-4-(methylsulfonamidomethyl)phenyl)propanamide], for which the Ki was 83 nM. For `CCS(=O)(=O)NCc1ccc(C(C)C(=O)NCc2ccc(C(F)(F)F)nc2OC(C)C)cc1F` (centres unmarked) [Example 30, 2-(4-(ethylsulfonamidomethyl)-3-fluorophenyl)-N-((2-isopropoxy-6-(trifluoromethyl)pyridin-3-yl)methyl)propanamide], the inhibition constant Ki was 70 nM. For `CC(C)Oc1nc(C(F)(F)F)ccc1CNC(=O)Nc1ccc(CNS(N)(=O)=O)c(F)c1` [Example 36, 1-{3-fluoro-4-[(sulfamoylamino)methyl]phenyl}-3-{[2-isopropoxy-6-(trifluoromethyl)pyridin-3-yl]methyl}urea], the inhibition constant Ki is 6 nM. For the compound `CC(C)Oc1nc(C(F)(F)F)ccc1CNC(=O)Nc1ccc(CNS(N)(=O)=O)cc1` [Example 32, 1-{[2-isopropoxy-6-(trifluoromethyl)pyridin-3-yl]methyl}-3-{4-[(sulfamoylamino)methyl]phenyl}urea], the inhibition constant (Ki) was 10 nM. Same read-out and setting: the value for `CCCCOc1nc(C(F)(F)F)ccc1CNC(=O)C(C)c1ccc(CNS(C)(=O)=O)c(F)c1` (centres unmarked) [Example 16, N-((2-butoxy-6-(trifluoromethyl)pyridin-3-yl)methyl)-2-(3-fluoro-4-(methylsulfonamidomethyl)phenyl)propanamide] was 8 nM. The same measure, in the same setting: the value for `CCOc1nc(C(F)(F)F)ccc1CNC(=O)Nc1ccc(CNS(N)(=O)=O)c(F)c1` [Example 35, 1-{3-fluoro-4-[(sulfamoylamino)methyl]phenyl}-3-{[2-ethoxy-6-(trifluoromethyl)pyridin-3-yl]methyl}urea] was 16 nM; that for `CC(C(=O)NCc1ccc(C(F)(F)F)nc1-c1ccc2c(c1)OCO2)c1ccc(CNS(C)(=O)=O)c(F)c1` (centres unmarked) [Example 45, N-((2-(benzo[d][1,3]dioxol-5-yl)-6-(trifluoromethyl)pyridin-3-yl)methyl)-2-(3-fluoro-4-(methylsulfonamidomethyl)phenyl)propanamide] was 59 nM; that for `CC(C(=O)NCc1ccc(C(F)(F)F)nc1C1CCCC1)c1ccc(CNS(C)(=O)=O)c(F)c1` (centres unmarked) [Example 5, N-((2-cyclopentyl-6-(trifluoromethyl)pyridin-3-yl)methyl)-2-(3-fluoro-4-(methylsulfonamidomethyl)phenyl)propanamide] was 13 nM. As to `CCCCOc1nc(C(F)(F)F)ccc1CNC(=O)C(C)c1ccc(CNS(=O)(=O)CC)c(F)c1` (centres unmarked) [Example 31, N-((2-butoxy-6-(trifluoromethyl)pyridin-3-yl)methyl)-2-(4-(ethylsulfonamidomethyl)-3-fluorophenyl)propanamide], the Ki is 15 nM. Still for that read-out and setting: in the case of `CC(C(=O)NCc1ccc(C(F)(F)F)nc1-c1cccs1)c1ccc(CNS(C)(=O)=O)c(F)c1` (centres unmarked) [Example 47, 2-(3-fluoro-4-(methylsulfonamidomethyl)phenyl)-N-((2-(thiophen-2-yl)-6-(trifluoromethyl)pyridin-3-yl)methyl)propanamide] it was 41 nM; in that of `CCCCOc1nc(C(F)(F)F)ccc1CNC(=O)C(C)c1ccc(CNS(C)(=O)=O)c(OC)c1` (centres unmarked) [Example 29, N-((2-butoxy-6-(trifluoromethyl)pyridin-3-yl)methyl)-2-(3-methoxy-4-(methylsulfonamidomethyl)phenyl)propanamide], 61 nM; in that of `CCCCOc1nc(C(F)(F)F)ccc1CNC(=O)Nc1ccc(CNS(N)(=O)=O)cc1` [Example 33, 1-{[2-butoxy-6-(trifluoromethyl)pyridin-3-yl]methyl}-3-{4-[(sulfamoylamino)methyl]phenyl}urea], 8 nM. On to `CCCCOc1nc(C(F)(F)F)ccc1CNC(=O)Nc1ccc(CNS(N)(=O)=O)c(F)c1` [Example 37, 1-{3-fluoro-4-[(sulfamoylamino)methyl]phenyl}-3-{[2-butoxy-6-(trifluoromethyl)pyridin-3-yl]methyl}urea], for which the Ki was found to be 7 nM.

The values are drawn from patent publication US20130079373A1, “Substituted Methanesulfonamide Derivatives as Vanilloid Receptor Ligands” (priority 2011, published 2013).
